One block for each molecule: values may come before it. Numbered stars: 1 amine (or outer) side, 2 acyl side, 3 side chain; on linkers, the order of the positions; unused ones are H or OH. Bridge positions count the residues as written; N and C are the ends. Square brackets hold non-standard residues; d marks the D form. Primed or numbered codes have the meaning given here. * marks the point of attachment. TATA = O=C(CC[*:1])N1CN(C(=O)CC[*:2])CN(C(=O)CC[*:3])C1; NOTA = O=C(O)CN1CCN(CC(=O)O)CCN(CC(=O)*)CC1; Hyp = O=C(O)[C@@H]1C[C@@H](O)CN1; hArg = N=C(N)NCCCC[C@H](N)C(=O)O; PEG12′ = not defined here
Assays:
[1] = assay type: physicochemical
Description: The ^68Ge/^68Ga generator was manually eluted using […] of 0.1M HCl (Ultrapure trace-metal-free) in four different fractions (2.4 mL, 1 mL, 1 mL, and 1.4 mL). […] The reaction mixture was incubated for 12 min at 65 °C in a temperature-controlled heating block and purified on a RP-HPLC system using a semi-preparative C-18 Luna column ([…], 10 × 250 mm Phenomenex, Torrance, CA). The HPLC condition was gradient elution starting with 20% acetonitrile: water (0.1% formic acid) and reaching 60% acetonitrile: water (0.1% formic acid) in 20 min at a flow rate of 5 mL/min. […] The desired radiolabeled fraction was concentrated under a stream of N2 at 60 °C, formulated in 10% EtOH in saline, and used for in vitro and in vivo studies. The whole radiolabeling process was completed in approximately 35 min. Quality control, stability studies, and chemical identity were also performed on the same HPLC system using the same HPLC gradient as described above.

T24 cells = experiment: In vitro binding of [^68Ga]AJ647 to T24 cells; assay type: cell-based; settings: ~37 kBq (~1 μCi), 4°C, 1 hour, mean ± SD
Description: […] After incubation, cells were washed three times with ice cold PBS containing 0.1% Tween®20 and counted on an automated gamma counter. All cell radioactivity uptake studies were performed in quadruplicate for each cell line and repeated three times.

in vivo = settings: male, mouse, iv, 1.85 MBq, total radioactivity
Description: All mouse studies were conducted through Johns Hopkins University Animal Care and Use Committee (ACUC) approved protocols. Protocol M021M175 was approved by Chair, ACUC. Xenografts were established in five-to-six-weeks old, male, non-obese, diabetic, severe-combined immunodeficient gamma (NSG) mice obtained from the Johns Hopkins University Immune Compromised Animal Core.
Mice were injected with cancer cells subcutaneously in […] PBS (top right flank) for all tumor models. Following cell numbers were used: HT1376 (4 M), UC9 (3 M), UC14 (3 M), RT112 (1.5 M), T24(3 M), SCaBER (4 M). Mice with tumor volumes of 100–200 mm^3 were used for all experiments. A minimum of 4 mice were used for all biodistribution studies. A minimum of 7 mice were used in pharmacodynamics experiment to account for greater variability.
To validate imaging studies, ex vivo biodistribution studies were conducted in mice with tumors of size 100–200 mm^3. Mice received ~50 μCi (1.85 MBq) of [^68Ga]AJ647 in […] of 5% ethanol in saline intravenously and mice were sacrificed at 5–180 min after [^68Ga]AJ647 injection for pharmacokinetic evaluation (n=4 per timepoint). In all other studies, 60 min time-point was chosen. Selected tissues (Blood, Skin, Muscle, Bone, Salivary glands, Tumor, Lungs, Heart, Liver, Pancreas, Spleen, Kidneys, Bladder, Testicles) were collected, weighed, counted, and their %IA/g values calculated as described previously (PMID: 37793856). For EV pharmacodynamics studies, fewer organs were harvested to accommodate more number of mice.

Nectin-4 = settings: cited from earlier work
Excerpt: A PEG linker was attached to the N-terminal cysteine residue of AJ632 (Fig. 2A). The free terminal amine was then conjugated to a NOTA chelator, enabling the successful radiolabeling with gallium-68 to produce [^68Ga]AJ647 and its non-radioactive analog [^natGa]AJ647. The radiolabeling process, performed as previously described ([16]), yielded [^68Ga]AJ647 with an 71.2±9.4% decay-corrected yield and 97±0.8% purity (n=20), ach ...

human Nectin-4 = biological target: T1, human Nectin-4 (Homo sapiens, UniProt Q96NY8); experiment: Surface plasmon resonance, human Nectin-4; assay type: binding; settings: SPR Biacore T200, CM5 chip, 25 °C, His-tagged human Nectin-4 captured, PBS-P+1% DMSO, 1:1 kinetics fit; mean±SD n=3
T1 construct: purchased R&D systems 2659-N4–050
T1 sequence (Q96NY8 32-349 limits assumed): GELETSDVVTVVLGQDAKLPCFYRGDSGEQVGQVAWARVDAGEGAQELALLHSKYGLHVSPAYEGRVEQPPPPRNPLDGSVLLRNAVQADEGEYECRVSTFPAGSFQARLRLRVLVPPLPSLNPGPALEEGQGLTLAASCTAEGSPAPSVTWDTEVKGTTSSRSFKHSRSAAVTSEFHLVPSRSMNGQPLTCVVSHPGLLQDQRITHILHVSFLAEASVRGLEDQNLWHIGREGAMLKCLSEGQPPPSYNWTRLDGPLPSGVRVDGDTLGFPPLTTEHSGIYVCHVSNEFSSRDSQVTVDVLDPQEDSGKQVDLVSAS
Description: (§1) The affinity of AJ647 for human and mouse Nectin-4 recombinant proteins were evaluated by SPR. The experiments were conducted using a Biacore T200 instrument with a CM5 chip at 25 °C. The ligands used were His-Tagged human Nectin-4 (R&D systems, catalog # 2659-N4–050, 44 kDa, 0.2 mg/ml stock concentration) and mouse Nectin-4 proteins (R&D systems, catalog # 3116-N4–050, 45 kDa, 0.2 mg/ml stock concentration), which were immobilized onto the CM5 chip. AJ647 (3057.5 Da, 10 mM stock concentration) was used as the analyte, which flowed over the ligand immobilized surface. FC2 and FC4 was used as the experimental flow cell, while FC1 and FC3 served as the reference. Anti-His antibody (1 mg/ml stock concentration) was immobilized on all FCs using standard amine coupling chemistry. […] Human Nectin-4 was captured onto FC2 at a level of ~600 RU, with a 1:20 dilution and 10 μg/ml diluted concentration in PBS-P. Mouse Nectin-4 was captured onto FC4 at a level of 600 RU, with a 1:20 dilution and 10 μg/ml diluted concentration in PBS-P. The theoretical Rmax values were calculated based on the captured response values and are presented in table below, assuming a 1:1 interaction mechanism. […] All association and dissociation kinetics were evaluated by 1:1 kinetics model fitting.

mouse Nectin-4 = biological target: T2, mouse Nectin-4 (Mus musculus, UniProt Q8R007); experiment: Surface plasmon resonance, mouse Nectin-4; assay type: binding; settings: SPR Biacore T200, CM5 chip, 25 °C, His-tagged mouse Nectin-4 captured, PBS-P+1% DMSO, 1:1 kinetics fit; mean±SD n=3
T2 construct: purchased R&D systems 3116-N4–050
T2 sequence (Q8R007 31-347 limits assumed): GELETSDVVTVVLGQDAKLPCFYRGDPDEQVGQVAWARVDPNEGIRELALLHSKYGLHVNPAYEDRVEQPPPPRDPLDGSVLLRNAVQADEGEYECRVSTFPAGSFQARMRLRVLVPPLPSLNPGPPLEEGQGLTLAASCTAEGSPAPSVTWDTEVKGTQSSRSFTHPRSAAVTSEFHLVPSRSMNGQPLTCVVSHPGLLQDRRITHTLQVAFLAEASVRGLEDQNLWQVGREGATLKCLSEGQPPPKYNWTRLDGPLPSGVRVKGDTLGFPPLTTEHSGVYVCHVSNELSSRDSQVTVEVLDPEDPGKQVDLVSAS
Description: as §1

[2] = biological target: T3, Nectin-4 on urothelial carcinoma cells (human (endogenous in HT1376, UC14, UC9, …, UniProt Q96NY8 32-510)); experiment: flow cytometry on cells; competition: HT1376 cells with non-radioactive AJ647 5.4 uM to 0.01 nM for 30 min at 4 °C, washed, then EV-FITC for 30 min at 4 °C; mean fluorescence intensity as percent of 0 nM AJ647; settings: one partner purified
T3 construct: Nectin-4, endogenous on the surface of urothelial carcinoma cell lines; also called cell surface Nectin-4; Nectin-4 receptor; source: endogenous, on HT1376, UC14, UC9, RT112 and SCaBER cells (and their xenografts)
T3 sequence (looked up): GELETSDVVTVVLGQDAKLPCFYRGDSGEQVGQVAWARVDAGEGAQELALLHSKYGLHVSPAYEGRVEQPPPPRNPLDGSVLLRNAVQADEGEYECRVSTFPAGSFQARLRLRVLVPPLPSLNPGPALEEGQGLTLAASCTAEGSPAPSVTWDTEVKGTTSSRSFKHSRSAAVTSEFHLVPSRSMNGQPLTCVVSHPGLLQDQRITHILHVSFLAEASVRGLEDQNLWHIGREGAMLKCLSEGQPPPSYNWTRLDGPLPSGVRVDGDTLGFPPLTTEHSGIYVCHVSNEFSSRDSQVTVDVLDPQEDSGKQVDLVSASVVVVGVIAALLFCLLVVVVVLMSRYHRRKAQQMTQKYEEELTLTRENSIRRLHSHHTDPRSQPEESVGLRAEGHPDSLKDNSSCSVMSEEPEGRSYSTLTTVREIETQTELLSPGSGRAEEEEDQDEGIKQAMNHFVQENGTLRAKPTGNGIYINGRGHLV

[3] = biological target: T4, mouse Nectin-4 (recombinant) (mouse, UniProt Q8R007 31-347); experiment: SPR
T4 chain: T2 sequence (Q8R007 31-347 limits assumed)

[4] = biological target: T5, His-Tagged human Nectin-4 (human, UniProt Q96NY8 32-349); experiment: SPR
T5 chain: T1 sequence (Q96NY8 32-349 limits assumed)

Molecule: NH2-PEG12-(Cys-Pro-Nal-Asp-Cys-Met-hArg-dAsp-Trp-Ser-Thr-Pro-Hyp-Trp-Cys)-TATA based cyclization (bicyclic or more) [AJ632]
- affinity to Nectin-4 (Nectin-4): low nanomolar

Molecule: {NOTA-PEG12′}-CP[Nal]DCM[hArg][dD]WSTP[Hyp]WC-NH2 (linker 1-5-15 via TATA) [AJ647]
- IC50 [2]: 35 nM

Molecule: {NOTA-PEG12′}-CP[Nal]DCM[hArg][dD]WSTP[Hyp]WC-NH2 (linker 1-5-15 via TATA; also: natGa complexed in NOTA) [[^natGa]AJ647]
- koff [3]: 0.0101 s⁻¹
- koff [4]: 0.0106 s⁻¹

Further lines, with some results ahead:

- stability of [^68Ga]AJ647 confirmed [1]: up to 3 hours
- tissue to tissue ratio at 0.25 h (in vivo; NSG): 1.31 ± 0.41
- tissue to tissue ratio at 1 h (in vivo; NSG): 4.6 ± 1.07
- tissue uptake at 2 h (in vivo; Adrenals %IA/g): 3.11 ± 0.21 %ID/g
- tissue uptake at 3 h (in vivo; Adrenals %IA/g): 3.01 ± 0.27 %ID/g
- tissue uptake at 3 h (in vivo; Brain %IA/g): 0.07 ± 0.01 %ID/g
- tissue uptake at 3 h (in vivo; Kidney %IA/g): 24.8 ± 8.74 %ID/g
- tissue uptake at 1 h (in vivo; Large Intestine %IA/g): 0.25 ± 0.13 %ID/g
- tissue uptake at 2 h (in vivo; Large Intestine %IA/g): 0.18 ± 0.06 %ID/g
- tissue uptake at 3 h (in vivo; Large Intestine %IA/g): 0.28 ± 0.13 %ID/g
- tissue uptake at 1 h (in vivo; Testicles %IA/g): 0.71 ± 0.24 %ID/g
Molecule: CSCC[C@@H]1NC(=O)[C@@H]2CSCCC(=O)N3CN(CN(C3)C(=O)CCSC[C@H](NC(=O)CCOCCOCCOCCOCCOCCOCCOCCOCCOCCOCCOCCOCCNC(=O)CN3CCN(CC(=O)O)CCN(CC(=O)O)CC3)C(=O)N3CCC[C@H]3C(=O)N[C@@H](Cc3cccc4ccccc34)C(=O)N[C@@H](CC(=O)O)C(=O)N2)C(=O)CCSC[C@@H](C(N)=O)NC(=O)[C@H](Cc2c[nH]c3ccccc23)NC(=O)[C@@H]2C[C@@H](O)CN2C(=O)[C@@H]2CCCN2C(=O)[C@H]([C@@H](C)O)NC(=O)[C@H](CO)NC(=O)[C@H](Cc2c[nH]c3ccccc23)NC(=O)[C@@H](CC(=O)O)NC(=O)[C@H](CCCCNC(=N)N)NC1=O [[^68Ga]AJ647, metal not drawn]
- [^68Ga]AJ647 binding (percent incubated activity) (T24 cells): 0.2±0.11 %IA

- Kd (human Nectin-4): 15 ± 10.1 nM
- Kd (mouse Nectin-4): 14.1 ± 3.4 nM
Molecule: CSCC[C@@H]1NC(=O)[C@@H]2CSCCC(=O)N3CN(CN(C3)C(=O)CCSC[C@H](NC(=O)CCOCCOCCOCCOCCOCCOCCOCCOCCOCCOCCOCCOCCNC(=O)CN3CCN(CC(=O)O)CCN(CC(=O)O)CC3)C(=O)N3CCC[C@H]3C(=O)N[C@@H](Cc3cccc4ccccc34)C(=O)N[C@@H](CC(=O)O)C(=O)N2)C(=O)CCSC[C@@H](C(N)=O)NC(=O)[C@H](Cc2c[nH]c3ccccc23)NC(=O)[C@@H]2C[C@@H](O)CN2C(=O)[C@@H]2CCCN2C(=O)[C@H]([C@@H](C)O)NC(=O)[C@H](CO)NC(=O)[C@H](Cc2c[nH]c3ccccc23)NC(=O)[C@@H](CC(=O)O)NC(=O)[C@H](CCCCNC(=N)N)NC1=O [[^natGa]AJ647, metal not drawn]

From article doi:10.1101/2024.12.25.630315 (bioRxiv, 2024)
